The values that follow come from paper PMC9501633, “Synthesis, Characterisation and Mechanism of Action of Anticancer 3-Fluoroazetidin-2-ones” (Pharmaceuticals, 2022).

By IC50 is commonly meant the concentration that inhibits the measured activity by half.

Molecules are shown by their SMILES.

Test [1] has as its system purified bovine brain tubulin. Set-up: method as in PMID 31954879. The note with it: 10 μM; cited from earlier work.
In the next test the test system is Hs578T cells. Put plainly: AlamarBlue cell viability assay. Type of test: cell-based. The conditions noted are these: Homo sapiens, Hs-578T. The procedure: (§1) The potent 3-fluoro-β-lactam compound 33 synthesised was also evaluated in the triple-negative MDA-MB-231 cell line which lacks expression of the estrogen and progesterone receptors (ER/PR) and the HER2 receptor. […]. Compound 32 was also evaluated in the triple-negative breast cancer cell line Hs578T and its isogenic subclone Hs578T(i)8 (Figure 4C). Hs578Ts(i)8 cells have 2.5-fold more migratory capacity and 3-fold more invasive capacity through the extracellular matrix than the parental cell line (Hs578T) and have 30% more CD44+/CD24-/low cells and in vivo proliferation. […]. The human breast carcinoma cell lines MCF-7 and MDA-MB-231 were purchased from the European Collection of Animal Cell Cultures (ECACC, Salisbury, UK). The SW-480 cells were a kind gift from Dr. Brian Flood, School of Biochemistry and Immunology, Trinity College Dublin. The human breast tumour cell line MCF-7 was cultured in Eagles minimum essential medium with 10% foetal bovine serum, 2 mM L-glutamine and 100 μg/mL penicillin/streptomycin. The medium was supplemented with 1% non-essential amino acids. The human breast tumour cell line MDA-MB-231 cells were maintained in Dulbecco’s modified Eagle’s medium (DMEM) with the addition of penicillin/streptomycin (100 µg/mL), 10% (v/v) foetal bovine serum and 2 mM L-glutamine (complete medium). Breast cancer cell line Hs578T and its isogenic subclone Hs578T(i)8 were a kind gift from Dr. Susan McDonnell, School of Chemical and Bioprocess Engineering, University College Dublin. SW-480 cells, triple-negative breast cancer Hs578T cells and invasive variant Hs578T8i cells were cultured in DMEM with GlutaMAX-I, with the same supplement in the absence of non-essential amino acids. HEK-293T cells (normal epithelial embryonic kidney cells) were cultured in DMEM with GlutaMAX-I in the absence of non-essential amino acids. The SW-480 cells were cultured in DMEM with GlutaMAX-I, with the same supplement in the absence of non-essential amino acids. All media contained 100 U/mL penicillin and 100 μg/mL streptomycin. The cells were seeded into pre-warmed complete medium (10 × 10^4 cells/mL) and maintained at a cell density of 2–19 × 10^5 cells /mL by the addition of fresh media. The cell number was monitored using a haemocytometer. Cells were maintained at 37 °C in 5% CO2 in a humidified incubator. […]
(§2) Figure 4 Antiproliferative activity of 3-fluoro β-lactams on MCF-7, MDA-MB-231, Hs578T and Hs578T isogenic subclone Hs578T(i)8 breast cancer cells and non-tumourigenic HEK-293T cells. […] Cell viability was expressed as a percentage of vehicle control (ethanol 1% (v/v))-treated cells. […] Cell viability was expressed as a percentage of vehicle control (ethanol 1% (v/v))-treated cells and was measured by AlamarBlue assay (average of three independent experiments). […]
(In general: Resazurin is reduced to fluorescent resorufin, in cell work by metabolically active cells.)

Another test relates to Hs578Ts(i)8 cells. Kind of test: AlamarBlue cell viability assay. Type of test: cell-based. The procedure:
as §1, §2

In a further test the test system is survivin. Kind of test: Western blot of apoptosis regulatory proteins in MCF-7 cells. Type of test: cell-based, human. The note with it: MCF-7, 0.05, 0.1 and 0.5 μM, dose- and time-dependent. The source says: Survivin is a member of the inhibitor of apoptosis (IAP) protein family. It is an essential anti-apoptotic protein marker that is overexpressed in most tumour cells and is associated with a poor clinical outcome. Survivin inhibits caspase activation, which is used as an indicator of apoptosis cascades. Survivin selective inhibitor molecules have been identified as cancer therapeutics, including survivin–partner protein interaction inhibitors, survivin homodimerisation inhibitors, survivin gene transcription inhibitors and survivin mRNA inhibitors. We examined the effect of a range of concentrations of compound 33 (0.05, 0.1 and 0.5 μM) on the level of survivin expressed.
Western blot analysis was performed according to the protocols we previously described. MCF-7 cells were seeded at a density of 1 × 10^5 cells/flask in T25 flasks. After 48 h, whole cell lysates were prepared from untreated cells or cells treated with vehicle control (EtOH, 0.1% v/v) or cells treated with compound 33 (0.05 μM, 0.1 μM and 0.5 μM). […] Equal amounts of protein (as determined by a BCA assay) were resolved by SDS-PAGE (12%) followed by transfer to PVDF membranes. […] Proteins were detected using enhanced chemiluminescent Western blot detection (Clarity Western ECL substrate) (Bio-Rad) on the ChemiDoc MP System (Bio-Rad). […]

Regarding `COc1ccc(/C=C\c2cc(OC)c(OC)c(OC)c2)cc1O` [CA-4, combretastatin A-4, reference compound], in test [1], the “reduction in the Vmax of tubulin polymerisation” value was 6.3 fold. In addition, the IC50 with Hs578T cells worked out at 8 nM; in the test on Hs578Ts(i)8 cells, 20 nM.

Take `COc1ccc(C2C(F)C(=O)N2c2cc(OC)c(OC)c(OC)c2)cc1F` (stereo not shown) [Compound 33, 3-Fluoro-4-(3-fluoro-4-methoxyphenyl)-1-(3,4,5-trimethoxyphenyl)azetidin-2-one]: the survivin expression entry with survivin was “downregulation”.
